Data from US12054510B2, “2′ and/or 5′ amino-acid ester phosphoramidate 3′-deoxy adenosine derivatives as anti-cancer compounds” (Nucana plc, priority 2014, dated 2024).

Columns and labels:
RL (CRL-2261) = experiment: ATP ViaLight plus cell viability assay; type: cell-based
Experimental: (§1) Certain compounds of the invention were subjected to further studies to test the cytotoxic activity of certain compounds of the invention and also to measure their activity against 4 haematological cancer cell lines • TdT positive CEM (Human ALL) • TdT negative K562 (Human CML) • TdT negative H1-60 (Human ANLL) • RL (CRL-2261) non-HD lymphoma • The concentrations of the active metabolite dATP (Cordycepin triphosphate) in these cell lines was also measured. • The cytotoxic activity and the intracellular 3′-dATP concentrations were also studied in the presence of hENT1, Adenosine Kinase (AK) and Adenosine Deaminase pharmacological inhibitors in CEM and RL cancer cell lines. Said inhibitors that mimic known cancer resistance mechanisms. Methods Cell Culture
(§2) HL-60, K562, CCRF-CEM and RL cell lines were cultured in RPMI-1640 medium (Sigma Aldrich, UK), which were supplemented with 10% Fetal Bovine Serum (FBS) (PAA Laboratories), 1% amphotericin B (5.5 ml) and 1% penicillin/streptomycin (5.5 ml) (PAA Laboratories) and grown in flasks at 37° C. incubator with 5% CO2.
(§3) The amount of ATP was used as a measurement of cell number and cell viability. ATP ViaLight™ plus assay kit (Lonza, USA: Product No. LT07-121) to detect ATP in cells treated in luminescence compatible 96 well plates (initial concentration of cells was 1×10^4 cells/well) with cordycepin and ProTides at concentrations of: 0, 0.1, 0.5, 1, 5 and 10 μM, followed by incubation for 72 hours at 37° C. incubator with 5% CO2. For inhibitor studies, 10 μM of NBTI or 1 μM EHNA or A-134974 was added and left for 5 minutes before adding the drugs (see section 5 for inhibitor details).
(§4) After incubation, 50 μl of cell lysis reagent was added to the 96 well plates to release the intracellular ATP, followed by 100 μl of ATP monitoring reagent (AMR). The luminescent values of each well were determined using FLUOstar OPTIMA microplate reader (BMG Labtech) which convert ATP into light by using luciferase enzyme. Therefore, the amount of luminescence produced was directly proportional to the amount of ATP.
(§5) Cell lines were treated in the same way as described above but before treatment with drugs, a number of inhibitors were added: • 1) Nitrobenzylthioinosine (NBTI) (Sigma-Aldrich, St. Louis, MO, product # N2255) blocks nucleoside transporters • 2) EHNA hydrochloride (Sigma-Aldrich, St. Louis, MO, product # E114) blocks adenosine deaminase • 3) Adenosine kinase inhibitor A-134974 dihydrochloride hydrate (Sigma-Aldrich, St. Louis, MO, product # A2846): blocks adenosine kinase
(§6) The dose-response curves of cytotoxicity of the drugs was determined using non-linear regression analysis of percentage cell viability versus concentration and EC50 values were obtained. The intracellular assay was conducted in five replicates for each condition. Intracellular assay was determined using paired t test (two-tailed) analysis of 3′ ATP/ATP concentration and p-values were obtained. For all the analysis, Prism Software program (GraphPad Software) was used and Microsoft Powerpoint® 2013 was used to plot the results.

K562 [1] = experiment: ATP ViaLight plus cell viability assay; type: cell-based, Human; conditions: for (FD) fold difference compared to Cordycepin = Cordycepin IC50/ProTide IC50: K562
Experimental: as §1, §2, §3, §4, §6

HL-60 = experiment: ATP ViaLight plus cell viability assay; type: cell-based, Human; conditions: for (FD) fold difference compared to Cordycepin = Cordycepin IC50/ProTide IC50: HL-60
Experimental: as §1, §2, §3, §4, §6

SW620 = experiment: Solid tumour and haematological malignancy assay (CellTiterGlo); type: cell-based; conditions: for IC50: Homo sapiens, SW-620, 72 h, read-out: IC50 (absolute IC50); for MI %: SW620, 72 hr
Experimental: (§7) In vitro viability assay were performed to assess the effects of compounds on cell viability in selected cell lines over 72 hr using the CellTiterGlo (CTG, Promega-G7573) assay. The tests were performed in duplicates with treatment of compounds at 9 points, 3.16 folds titration in 96 well plates over ˜72 hr. The compound starting concentrations were […]. Cell viability assay using CellTiterGlo in 96-well plate were performed. Compound treatment 72 hrs, standard growth conditions, duplicates. Compounds were dissolved to 40 mM with thawed […]. Compounds were serially diluted at 3.16 fold in thawed DMSO, and warmed to 37° C. before being dissolved in media (2 μl+200 μl). After compounds were dissolved in media, media containing compounds were warmed to 37° C. in incubator and then compounds in media were added to cell plates (50 μl+50 μl) in duplicates. The compounds' final concentrations were from 198M to 19.9 nM. All compound solubilities were checked and recorded again, then the plates were transferred to CO2 tissue culture incubator immediately and incubated for 3 days. DMSO final concentration is 0.5%.

Jurkat = experiment: as above; type: cell-based; conditions: for MI %: 72 hr; for IC50: Homo sapiens, 72 h, read-out: IC50 (absolute IC50)
Experimental: as §7

HS445 = experiment: as above; type: cell-based; conditions: 72 hr
Experimental: as §7

MOLT-4 = experiment: as above; type: cell-based; conditions: Homo sapiens, MOLT-4, 72 h; for IC50: read-out: IC50 (absolute IC50); for Emax: read-out: MI %
Experimental: as §7

BxPC-3 = experiment: as above; type: cell-based; conditions: 72 hr
Experimental: as §7

CEM (TdT+ve) = experiment: ATP ViaLight plus cell viability assay; type: cell-based, Human; conditions: for (FD) fold difference compared to control: CEM
Experimental: as §1, §2, §3, §4, §5, §6

KG-1 = experiment: CellTiterGlo cell viability assay, initial screening; type: cell-based; conditions: KG-1; 72 hr; Table II
Experimental: (§8) In vitro viability assays were performed to assess the effects of compounds on cell viability in 7 selected cell lines over 72 hr using the CellTiterGlo (CTG, Promega-G7573) assay. The tests were performed in duplicates with treatment of compounds at 9 points, 3.16 folds titration in 96 well plates over ˜72 hr. The compound starting concentrations were […]. Cell viability assay using CellTiterGlo in 96-well plate were performed. The compound treatment was 72 hrs, under standard growth conditions, and in duplicate. Compounds were dissolved to 40 mM with thawed […]. Compounds were serially diluted at 3.16 fold in thawed DMSO, and warmed to 37° C. before being dissolved in media (2 μl+200 μl). After compounds were dissolved in media (media was also warmed to 37° C.). Media containing compounds were warmed to 37° C. in incubator and then compounds in media were added to cell plates (50 μl+50 μl), in duplicates. The compounds final concentrations were from […] to 19.9 nM. All compound solubilities were checked and recorded again, then the plates were transferred to CO2 tissue culture incubator immediately and incubated for 3 days. DMSO final concentration is 0.5%.

K562 [2] = experiment: as above; type: cell-based; conditions: 72 hr, Table II
Experimental: as §8

CCRF-CEM = experiment: as above; type: cell-based; conditions: CCRF-CEM; 72 hr; Table II
Experimental: as §8

Row | SMILES | (FD) fold difference compared to Cordycepin = Cordycepin IC50/ProTide IC50 (RL (CRL-2261)) | (FD) fold difference compared to control (RL (CRL-2261); AK) | (FD) fold difference compared to control (RL (CRL-2261); EHNA) | (FD) fold difference compared to control (RL (CRL-2261); NBTI) | (FD) fold difference compared to Cordycepin = Cordycepin IC50/ProTide IC50 (K562 [1]) | (FD) fold difference compared to Cordycepin = Cordycepin IC50/ProTide IC50 (HL-60) | IC50 (SW620) [µM] | MI % (SW620) [%] | MI % (Jurkat) [%] | IC50 (Jurkat) [µM] | MI % (HS445) [%] | IC50 (MOLT-4) [µM] | Emax (MOLT-4) [%] | MI % (BxPC-3) [%] | (FD) fold difference compared to Cordycepin = Cordycepin IC50/ProTide IC50 (CEM (TdT+ve); CEM (TdT+ve)) | (FD) fold difference compared to control (CEM (TdT+ve); AK) | (FD) fold difference compared to control (CEM (TdT+ve); EHNA) | M.I. %: maximum percentage inhibition of cell viability (KG-1) [%] | M.I. %: maximum percentage inhibition of cell viability (K562 [2]) [%] | M.I. %: maximum percentage inhibition of cell viability (CCRF-CEM) [%] | other results
1 | C[C@H](NP(=O)(OC[C@@H]1C[C@@H](O)[C@H](n2cnc3c(N)ncnc32)O1)Oc1cccc2ccccc12)C(=O)OCc1ccccc1 (stereo partly drawn) [B, (2S)-benzyl 2-(((((2S,4R,5R)-5-(6-amino-9H-purin-9-yl)-4-hydroxytetrahydrofuran-2-yl)methoxy)(naphthalen-1-yloxy)phosphoryl)amino)propanoate] | 61 | 1 | 2 | 1 | 52 | 4 | 5 to 15 | 93 | 100 | 0.1 to 5 | 96 | 0.1 to 5 | 98 | 90 | 150 | 1 | 1 | 100 | 97 | 100 | (FD) fold difference compared to control (CEM (TdT+ve); NBTI): 1
2 | COC(=O)C(C)(C)NP(=O)(OC[C@@H]1C[C@@H](O)[C@H](n2cnc3c(N)ncnc32)O1)Oc1cccc2ccccc12 (stereo partly drawn) [E, Methyl 2-(((((2S,4R,5R)-5-(6-amino-9H-purin-9-yl)-4-hydroxytetrahydrofuran-2-yl)-methoxy)(naphthalen-1-yloxy)phosphoryl)amino)-2-methylpropanoate] | 2 | 1 | 1 | 1 | 1 | 1 | 15 to 100 | 74 | 95 | – | 85 | – | 98 | 71 | 2 | 1 | 1 | 69 | 81 | 90 | (FD) fold difference compared to control (CEM (TdT+ve); NBTI): 2
3 | CCOC(=O)CCc1ccccc1OP(=O)(N[C@@H](C)C(=O)OCc1ccccc1)OC[C@@H]1C[C@@H](O)[C@H](n2cnc3c(N)ncnc32)O1 (stereo partly drawn) [F, (2S)-benzyl 2-(((((2S,4R,5R)-5-(6-amino-9H-purin-9-yl)-4-hydroxytetrahydrofuran-2-yl)methoxy)(2-(3-ethoxy-3-oxopropyl)phenoxy)phosphoryl)amino)propanoate] | 7 | – | – | – | 2 | 1 | 15 to 100 | – | 100 | 0.1 to 5 | 92 | 0.1 to 5 | 98 | 78 | 5 | – | – | 98 | 91 | 99 | IC50 (K562 [1]; Homo sapiens, K562, 72 h): 6.3 µM; IC50 (HL-60; Homo sapiens, HL-60, 72 h): 8.3 µM; IC50 (CEM (TdT+ve); Homo sapiens, 72 h, CEM (TdT+ve), 72 hours): 4.3 µM
